Test results from patent US12552752B2, “Atropisomers of pyridazinone derivatives as herbicides” (FMC Corporation, priority 2020, dated 2026).
Where “and” joins values, the source holds several entries; their conditions need not be identical. Equal values may be shown once.

Tests used:
Format in all cases: in vivo
[1] = test system: ragweed (common ragweed, Ambrosia elatior); assay: Test A postemergence, ragweed; conditions: POST, 0 to 100 scale, approximately 10 d
Source text: (§1) Seeds of plant species selected from barnyardgrass (BYG, Echinochloa crus-galli), kochia (KOC, Kochia scoparia), ragweed (common ragweed, Ambrosia elatior), ryegrass, Italian (RGI, Lolium multiflorum), foxtail, giant (FTI, Setaria faberii), foxtail, green (Setaria viridis) and pigweed (PWR, Amaranthus retroflexus) were planted into a blend of loam soil and sand and treated preemergence with a directed soil spray using test chemicals formulated in a non-phytotoxic solvent mixture which included a surfactant. At the same time, plants selected from these weed species and also wheat (WWT, Triticum aestivum), corn (CPI, Zea mays), blackgrass (BKG, Alopecurus myosuroides) and galium (GAL, catchweed bedstraw, Galium aparine) were planted in pots containing the same blend of loam soil and sand and treated with postemergence applications of test chemicals formulated in the same manner Plants ranged in height from 2 to 10 cm and were in the one- to two-leaf stage for the postemergence treatment. Treated plants and untreated controls were maintained in a greenhouse for approximately 10 d, after which time all treated plants were compared to untreated controls and visually evaluated for injury. Plant response ratings, summarized in Tables 1-4, are based on a 0 to 100 scale where 0 is no effect and 100 is complete control. A dash (−) response means no test result. The ratings are followed by a letter representing the symptomology where S is Albinism, C is Chlorosis, G is Growth Inhibition and E is Emergence.

[2] = test system: barnyardgrass (BYG, Echinochloa crus-galli); assay: Test A postemergence, barnyardgrass; conditions: POST, 0 to 100 scale, approximately 10 d
Source text: as §1

[3] = test system: kochia (KOC, Kochia scoparia); assay: Test A postemergence, kochia; conditions: POST, 0 to 100 scale, approximately 10 d
Source text: as §1

[4] = test system: pigweed (PWR, Amaranthus retroflexus); assay: Test A preemergence, pigweed; conditions: PRE, 0 to 100 scale, approximately 10 d
Source text: as §1

[5] = test system: foxtail, giant (FTI, Setaria faberii); assay: Test A postemergence, giant foxtail; conditions: POST, 0 to 100 scale, approximately 10 d
Source text: as §1

[6] = test system: ryegrass, Italian (RGI, Lolium multiflorum); assay: Test A preemergence, Italian ryegrass; conditions: PRE, 0 to 100 scale, approximately 10 d
Source text: as §1

[7] = test system: foxtail, giant (FTI, Setaria faberii); assay: Test A preemergence, giant foxtail; conditions: PRE, 0 to 100 scale, approximately 10 d
Source text: as §1

[8] = test system: kochia (KOC, Kochia scoparia); assay: Test A preemergence, kochia; conditions: PRE, 0 to 100 scale, approximately 10 d
Source text: as §1

[9] = test system: ryegrass, Italian (RGI, Lolium multiflorum); assay: Test A postemergence, Italian ryegrass; conditions: POST, 0 to 100 scale, approximately 10 d
Source text: as §1

[10] = test system: ragweed (common ragweed, Ambrosia elatior); assay: Test A preemergence, ragweed; conditions: PRE, 0 to 100 scale, approximately 10 d
Source text: as §1

[11] = test system: galium (GAL, catchweed bedstraw, Galium aparine); assay: Test A postemergence, galium; conditions: POST, 0 to 100 scale, approximately 10 d
Source text: as §1

[12] = test system: blackgrass (BKG, Alopecurus myosuroides); assay: Test A postemergence, blackgrass; conditions: POST, 0 to 100 scale, approximately 10 d
Source text: as §1

[13] = test system: wheat (WWT, Triticum aestivum); assay: Test A postemergence, wheat; conditions: POST, 0 to 100 scale, approximately 10 d
Source text: as §1

[14] = test system: pigweed (PWR, Amaranthus retroflexus); assay: Test A postemergence, pigweed; conditions: POST, 0 to 100 scale, approximately 10 d
Source text: as §1

[15] = test system: barnyardgrass (BYG, Echinochloa crus-galli); assay: Test A preemergence, barnyardgrass; conditions: PRE, 0 to 100 scale, approximately 10 d
Source text: as §1

corn (CPI, Zea mays) = assay: Test A postemergence, corn; conditions: POST, 0 to 100 scale, approximately 10 d
Source text: as §1

[16] = 16 g ai/ha, listed as drawing 32
[17] = 125 g ai/ha, listed as drawing 32
[18] = 62 g ai/ha, listed as drawing 32
[19] = 31 g ai/ha, listed as drawing 32
[20] = 31 g ai/ha, listed as drawing 30
[21] = 125 g ai/ha, listed as drawing 30
[22] = 31 g ai/ha, listed as drawing 29
[23] = 125 g ai/ha, listed as drawing 29

CCC(=O)Oc1c(Cl)nn(C)c(=O)c1-c1c(C)ccc2ccccc12 (racemic) [5 (Enantiomer 5B)]
Plant response rating RWC [1, 16]: 90 S | Plant response rating RWC [1, 17]: 100 S and 90 S | Plant response rating BYG [2, 16]: 30 S | Plant response rating BYG [2, 18]: 40 S | Plant response rating BYG [2, 17]: 80 S and 90 S | Plant response rating KOC [3, 16]: 50 S | Plant response rating KOC [3, 18]: 70 S | Plant response rating KOC [3, 17]: 80 S and 90 S | Plant response rating PWR [4, 16]: 0 | Plant response rating PWR [4, 18]: 60 G | Plant response rating FTI [5, 16]: 20 S | Plant response rating FTI [5, 19]: 60 S and 50 S | Plant response rating FTI [5, 18]: 60 S | Plant response rating FTI [5, 17]: 90 S | Plant response rating RGI [6, 18]: 10 S | Plant response rating FTI [7, 18]: 30 S | Plant response rating KOC [8, 18]: 50 S | Plant response rating KOC [8, 17]: 70 S and 50 S | Plant response rating RGI [9, 16]: 40 C | Plant response rating RGI [9, 19]: 70 C and 80 C | Plant response rating RGI [9, 18]: 80 C | Plant response rating RWC [10, 16]: 20 S | Plant response rating RWC ([10]; 31 g ai/ha): 70 S and 50 S | Plant response rating RWC [10, 18]: 70 S | Plant response rating RWC [10, 17]: 100 C and 90 C | Plant response rating GAL [11, 19]: 90 S and 100 S | Plant response rating BKG [12, 16]: 20 S | Plant response rating BKG [12, 18]: 40 G | Plant response rating BKG [12, 17]: 50 S and 80 S | Plant response rating WWT [13, 16]: 0 | Plant response rating WWT [13, 18]: 10 S | Plant response rating WWT [13, 17]: 50 S | Plant response rating PWR [14, 16]: 90 S | Plant response rating PWR [14, 17]: 100 S

CCC(=O)Oc1c(Cl)nn(C)c(=O)c1-c1c(C)ccc2ccc(C)cc12 (racemic) [4 (Enantiomer 4B)]
Plant response rating RWC [1, 20]: 90 S | Plant response rating RWC [1, 21]: 100 C | Plant response rating BYG [15, 20]: 100 C | Plant response rating BYG [15, 21]: 100 C | Plant response rating BYG [2, 20]: 70 S | Plant response rating BYG [2, 21]: 90 S | Plant response rating KOC [3, 21]: 50 S | Plant response rating PWR [4, 20]: 100 C 100 C 100 C 100 C | Plant response rating PWR [4, 21]: 100 C 100 C 100 C 100 C | Plant response rating FTI [5, 20]: 80 S | Plant response rating FTI [5, 21]: 90 S | Plant response rating RGI [6, 20]: 80 S | Plant response rating RGI [6, 21]: 90 S | Plant response rating FTI [7, 20]: 100 C | Plant response rating FTI [7, 21]: 100 C | Plant response rating CPI (corn (CPI, Zea mays); [20]): 10 G | Plant response rating CPI (corn (CPI, Zea mays); [21]): 10 S | Plant response rating KOC [8, 21]: 70 S | Plant response rating RGI [9, 20]: 80 C | Plant response rating RGI [9, 21]: 90 C | Plant response rating GAL [11, 20]: 100 C 100 C | Plant response rating GAL [11, 21]: 100 C 100 C | Plant response rating BKG [12, 20]: 20 S | Plant response rating BKG [12, 21]: 70 S | Plant response rating WWT [13, 20]: 0 | Plant response rating WWT [13, 21]: 20 S | Plant response rating PWR [14, 20]: 100 C 100 C 100 C 100 C | Plant response rating PWR [14, 21]: 100 C 100 C 100 C 100 C

CCC(=O)Oc1c(Cl)nn(C)c(=O)c1-c1c(C)ccc2ccc(C)cc12 (racemic) [4 (Enantiomer 4A)]
Plant response rating RWC [1, 22]: 80 S | Plant response rating RWC [1, 23]: 90 S | Plant response rating BYG [15, 22]: 0 | Plant response rating BYG [15, 23]: 0 | Plant response rating BYG [2, 22]: 0 | Plant response rating BYG [2, 23]: 30 C | Plant response rating KOC ([3]; 31 g ai/ha): 50 S | Plant response rating KOC [3, 23]: 60 S | Plant response rating PWR [4, 22]: 90 C | Plant response rating PWR [4, 23]: 90 C | Plant response rating FTI [5, 22]: 0 | Plant response rating FTI [5, 23]: 30 S | Plant response rating RGI [6, 22]: 0 | Plant response rating RGI [6, 23]: 10 C | Plant response rating FTI [7, 22]: 0 | Plant response rating FTI [7, 23]: 10 S | Plant response rating CPI (corn (CPI, Zea mays); [22]): 0 | Plant response rating CPI (corn (CPI, Zea mays); [23]): 0 | Plant response rating KOC ([8]; 31 g ai/ha): 10 C | Plant response rating KOC [8, 23]: 50 S | Plant response rating RGI [9, 22]: 10 C | Plant response rating RGI [9, 23]: 20 C | Plant response rating GAL [11, 22]: 80 S | Plant response rating GAL [11, 23]: 100 C | Plant response rating BKG [12, 22]: 10 C 10 C | Plant response rating BKG [12, 23]: 10 C 10 C | Plant response rating WWT [13, 22]: 0 | Plant response rating WWT [13, 23]: 0 | Plant response rating PWR [14, 22]: 90 S | Plant response rating PWR [14, 23]: 100 C
